The text below walks through data of BindingDB's records for doi:10.1021/jm060056p (University of Bologna, 2006).

A short description of the data set: Antiproliferative activity against human MDR1 transfected mouse L5178Y cell line.
Usually IC50 stands for the midpoint of a concentration-inhibition curve. `COc1ccc(CCN(C)CCN2C(=O)C3C4c5ccccc5C(c5ccccc54)C3C2=O)cc1OC` (stereo not drawn): half-maximal inhibition (IC50) was put at 4.23 µM. For the compound `COc1ccc(CCN(C)CC#CCN2C(=O)C3C4c5ccccc5C(c5ccccc54)C3C2=O)cc1OC` (stereo not drawn), the IC50 was 2.55 µM. Regarding `COc1ccc(CCN(C)CCCN2C(=O)C3C4c5ccccc5C(c5ccccc54)C3C2=O)cc1OC` (stereo not drawn), half-maximal inhibition (IC50) was put at 5.72 µM.
